Assay results reported in US20260234211A1, “POLYPEPTIDE HAVING MODIFIED STRUCTURE AND USE THEREOF” (Guangdong Raynovent Biotech Co., Ltd., priority 2023, published 2026).
pEC50: −log10 of the molar value. Where two headings read alike, the source gives them in different places. Values belong to the compound of their own block, whether it stands above or below them. Numbered stars: 1 amine (or outer) side, 2 acyl side, 3 side chain; on linkers, the order of the positions; unused ones are H or OH. Bridge positions count the residues as written; N and C are the ends. Square brackets hold non-standard residues; d marks the D form. Peptide text beside a SMILES is read from it. X1 = O=C(O)CCCCCCCCCCCCCCCCCCC(=O)N[C@@H](CCC(=O)NCCOCCOCC(=O)NCCCC[C@H](N[*:2])C(=O)[*:1])C(=O)O; αMeL = CC(C)C[C@](C)(N)C(=O)O; Aib = CC(C)(N)C(=O)O

Legend:
GLP-1R = target: T1, GLP-1R (Homo sapiens, UniProt P43220); test: In vitro GLP-1R agonistic activity test (cAMP, HEK293 cell line); type: cell-based
T1 construct: host or cells: HEK293
T1 sequence (P43220 24-463, species assumed): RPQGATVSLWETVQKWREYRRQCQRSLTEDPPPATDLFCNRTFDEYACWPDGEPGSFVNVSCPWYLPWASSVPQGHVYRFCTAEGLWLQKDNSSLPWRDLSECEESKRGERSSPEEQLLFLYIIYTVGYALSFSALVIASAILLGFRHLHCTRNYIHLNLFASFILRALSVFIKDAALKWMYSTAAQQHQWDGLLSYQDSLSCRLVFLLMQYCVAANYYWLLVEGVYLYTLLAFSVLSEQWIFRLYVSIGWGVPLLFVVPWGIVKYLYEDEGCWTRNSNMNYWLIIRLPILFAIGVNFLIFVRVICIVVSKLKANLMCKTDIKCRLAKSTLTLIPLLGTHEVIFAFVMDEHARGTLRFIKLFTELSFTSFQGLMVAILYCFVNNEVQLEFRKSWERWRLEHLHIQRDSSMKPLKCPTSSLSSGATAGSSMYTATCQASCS
Description: The cell lines were constructed by Pharmaron Inc. See details in the table below.
The test compounds were diluted at a 5-fold dilution factor in 10 points, starting from an initial concentration of 200 nM.
1) The cell lines were cultured respectively in complete medium at 37° C. and 5% CO2.
1) Eu-cAMP tracer was freeze-thawed and diluted 50 fold with detection buffer; and Ulight-anti-cAMP was freeze-thawed and diluted 150 fold with detection buffer.
3) 10 μL of Eu-cAMP tracer was added and then 10 μL of Uligh-anti-cAMP was added into experimental wells respectively.
4) The reaction plate was centrifuged at 200 g at room temperature for 30 s and left for stand at 25° C. for 1 h.

[1] = Pharmacokinetic properties in Cynomolgus macaques; conditions: cynomolgus monkey, in vivo, male cynomolgus macaques, plasma
Description: To test the pharmacokinetic profiles of the compounds in Cynomolgus macaques.
Non-juvenile male cynomolgus macaques were used for experiment, 3 cynomolgus macaques for each compound. Whole blood was collected at time points of 1 h, 2 h, 4 h, 8 h, 16 h, 24 h, 48 h, 72 h, 120 h, 168 h and 240 h after administration, to prepare plasma. The drug concentration was analyzed by LC-MS/MS method, and the pharmacokinetic parameters were calculated using Phoenix WinNonlin software.

[2] = Metabolic stability in human kidney S9; type: in vitro ADME; conditions: human, s9
Description: The metabolic stability of the compounds in human kidney was evaluated to determine whether the drugs would be degraded by metabolic enzymes in the kidney to affect the efficacies and pharmacokinetics. 1. Relevant solutions were formulated. 2. a) With cofactors (NADPH & UDPGA): NADPH and UDPGA were added during the incubation. […] H2O was added into the culture solution. The final concentration of KS9 Fractions was 1 mg/mL. The mixture was pre-heated at 37° C. for 10 min. […] In this study, 7-hydroxy-coumarin and Raloxifene were used as the positive control. The final concentration of the positive control compounds was 0.2 μM, and the final concentration of the test compound was 1 μM. The culture solution was incubated in water bath at 37° C. 4. At 0.5, 5, 15, 30 and 60 min, volume aliquots were taken from the reaction solution and the reaction was stopped by adding acetonitrile. The samples were centrifuged for 30 min. The supernatant was taken and mixed with ultrapure water for subsequent LC-MS/MS analysis. 5. Data analysis: All calculation was conducted using Microsoft Excel. Peak areas were determined and slope values were calculated based on the extracted ion chromatograms.

[3] = cAMP, HEK293 cells expressing GLP-1R, read-out: GLP-1 EC50

Compound: CC[C@H](C)[C@H](NC(=O)[C@H](Cc1ccccc1)NC(=O)[C@H](C)NC(=O)C(C)(C)NC(=O)[C@H](CCC(N)=O)NC(=O)[C@H](C)NC(=O)[C@@H]1CCCCNC(=O)CN(C(=O)COCCOCCNC(=O)CC[C@H](NC(=O)CCCCCCCCCCCCCCCCCCC(=O)O)C(=O)O)CC(=O)NCCCC[C@H](NC(=O)[C@](C)(CC(C)C)NC(=O)[C@@H](NC(=O)[C@H](CO)NC(=O)[C@H](Cc2ccc(O)cc2)NC(=O)[C@H](CC(=O)O)NC(=O)[C@H](CO)NC(=O)[C@@H](NC(=O)[C@H](Cc2ccccc2)NC(=O)[C@@H](NC(=O)CNC(=O)[C@H](CCC(N)=O)NC(=O)C(C)(C)NC(=O)[C@@H](N)Cc2ccc(O)cc2)[C@@H](C)O)[C@@H](C)O)[C@@H](C)CC)C(=O)N[C@@H](CC(=O)O)C(=O)N[C@@H](CCCCN)C(=O)N1)C(=O)N[C@@H](CCC(=O)O)C(=O)N[C@@H](Cc1ccc(O)cc1)C(=O)N[C@@H](CC(C)C)C(=O)N[C@@H](CC(C)C)C(=O)N[C@@H](CCCCN)C(=O)NCC(=O)NCC(=O)N1CCC[C@H]1C(=O)N[C@@H](CO)C(=O)N[C@@H](CO)C(=O)NCC(=O)N[C@@H](C)C(=O)N1CCC[C@H]1C(=O)N1CCC[C@H]1C(=O)N1CCC[C@H]1C(=O)N[C@@H](CO)C(N)=O [Example 38, YAibQGT FTSDY SIα- MeL^1KD K^1KAQAib AFIEY LLKGG PSSGA PPPS-NH2 (SEQ ID NO: 38)]
AUC(0-t) ([1]; read-out: AUC0-240 h): 3.88 µM·h | AUC(0-inf) ([1]; read-out: AUCINF): 4.41 µM·h | Cmax ([1]; read-out: Cmax): 33.9 nM | half-life ([1]; read-out: T1/2 (converted)): 74.9 h | Tmax ([1]; read-out: Tmax): 21.3 h | pEC50 (GLP-1R): 11.70

Compound: CC[C@H](C)[C@@H]1NC(=O)[C@H](Cc2ccccc2)NC(=O)[C@@H](NC(=O)C(C)(C)NC(=O)[C@H](CCC(N)=O)NC(=O)[C@H](C)NC(=O)[C@H](CCCCN)NC(=O)[C@H](CCCCN)NC(=O)[C@H](CC(=O)O)NC(=O)[C@H](CC(C)C)NC(=O)[C@](C)(CC(C)C)NC(=O)[C@@H](NC(=O)[C@H](CO)NC(=O)[C@H](Cc2ccc(O)cc2)NC(=O)[C@H](CC(=O)O)NC(=O)[C@H](CO)NC(=O)[C@@H](NC(=O)[C@H](Cc2ccccc2)NC(=O)[C@@H](NC(=O)CNC(=O)[C@H](CCC(N)=O)NC(=O)C(C)(C)NC(=O)[C@@H](N)Cc2ccc(O)cc2)[C@@H](C)O)[C@@H](C)O)[C@@H](C)CC)CCCCNC(=O)CN(C(=O)COCCOCCNC(=O)COCCOCCNC(=O)CC[C@H](NC(=O)CCCCCCCCCCCCCCCCCCC(=O)O)C(=O)O)CC(=O)NCCCC[C@@H](C(=O)NCC(=O)NCC(=O)N2CCC[C@H]2C(=O)N[C@@H](CO)C(=O)N[C@@H](CO)C(=O)NCC(=O)N[C@@H](C)C(=O)N2CCC[C@H]2C(=O)N2CCC[C@H]2C(=O)N2CCC[C@H]2C(=O)N[C@@H](CO)C(N)=O)NC(=O)[C@H](CC(C)C)NC(=O)[C@H](CC(C)C)NC(=O)[C@H](Cc2ccc(O)cc2)NC(=O)[C@H](CCC(=O)O)NC1=O [Example 14, YAibQGT FTSDY SIα- MeLLD KKAQAib ^1KFIEY LLIKGG PSSGA PPPS-NH2 (SEQ ID NO: 20)]
pEC50 (GLP-1R; [3]): 12.00

Compound: CC[C@H](C)[C@H](NC(=O)[C@H](Cc1ccccc1)NC(=O)[C@@H]1CCC(=O)N[C@@H](CCCCNC(=O)COCCOCCNC(=O)CC[C@H](NC(=O)CCCCCCCCCCCCCCCCCCC(=O)O)C(=O)O)C(=O)NCCCC[C@H](NC(=O)[C@H](CCCCN)NC(=O)[C@H](CC(=O)O)NC(=O)[C@H](CC(C)C)NC(=O)[C@](C)(CC(C)C)NC(=O)[C@@H](NC(=O)[C@H](CO)NC(=O)[C@H](Cc2ccc(O)cc2)NC(=O)[C@H](CC(=O)O)NC(=O)[C@H](CO)NC(=O)[C@@H](NC(=O)[C@H](Cc2ccccc2)NC(=O)[C@@H](NC(=O)CNC(=O)[C@H](CCC(N)=O)NC(=O)C(C)(C)NC(=O)[C@@H](N)Cc2ccc(O)cc2)[C@@H](C)O)[C@@H](C)O)[C@@H](C)CC)C(=O)N[C@@H](C)C(=O)N[C@@H](CCC(N)=O)C(=O)NC(C)(C)C(=O)N1)C(=O)N[C@@H](CCC(=O)O)C(=O)N[C@@H](Cc1ccc(O)cc1)C(=O)N[C@@H](CC(C)C)C(=O)N[C@@H](CC(C)C)C(=O)N[C@@H](CCC(=O)O)C(=O)NCC(=O)NCC(=O)N1CCC[C@H]1C(=O)N[C@@H](CO)C(=O)N[C@@H](CO)C(=O)NCC(=O)N[C@@H](C)C(=O)N1CCC[C@H]1C(=O)N1CCC[C@H]1C(=O)N1CCC[C@H]1C(=O)N[C@@H](CO)C(N)=O [Example 10, YAibQGT FTSDY SIα- MeLLD K^1KAQAib ^1EFIEY LLEGG PSSGA PPPS-NH2 (SEQ ID NO: 16)] (H-Y[Aib]QGTFTSDYSI[αMeL]LDKKAQ[Aib]EFIEYLLEGGPSSGAPPPS-NH2; linker 17-21 via X1 (inferred); N-terminus assumed)
half-life at 1 μM [2]: > 3.08 h | microsomal CLint at 1 μM [2]: < 3.75 µL/min/mg | pEC50 (GLP-1R; [3]): 11.05

Other lines, results leading:

pEC50 (GLP-1R; [3]): 11.70
Compound: CC[C@H](C)[C@H](NC(=O)[C@H](Cc1ccccc1)NC(=O)[C@H](C)NC(=O)C(C)(C)NC(=O)[C@H](CCC(N)=O)NC(=O)[C@H](C)NC(=O)[C@@H]1CCCCNC(=O)CN(C(=O)COCCOCCNC(=O)[C@@H](N)CCCCNC(=O)CC[C@H](NC(=O)CCCCCCCCCCCCCCCCCCC(=O)O)C(=O)O)CC(=O)NCCCC[C@H](NC(=O)[C@](C)(CC(C)C)NC(=O)[C@@H](NC(=O)[C@H](CO)NC(=O)[C@H](Cc2ccc(O)cc2)NC(=O)[C@H](CC(=O)O)NC(=O)[C@H](CO)NC(=O)[C@@H](NC(=O)[C@H](Cc2ccccc2)NC(=O)[C@@H](NC(=O)CNC(=O)[C@H](CCC(N)=O)NC(=O)C(C)(C)NC(=O)[C@@H](N)Cc2ccc(O)cc2)[C@@H](C)O)[C@@H](C)O)[C@@H](C)CC)C(=O)N[C@@H](CC(=O)O)C(=O)N[C@@H](CCCCN)C(=O)N1)C(=O)N[C@@H](CCC(=O)O)C(=O)N[C@@H](Cc1ccc(O)cc1)C(=O)N[C@@H](CC(C)C)C(=O)N[C@@H](CC(C)C)C(=O)N[C@@H](CCCCN)C(=O)NCC(=O)NCC(=O)N1CCC[C@H]1C(=O)N[C@@H](CO)C(=O)N[C@@H](CO)C(=O)NCC(=O)N[C@@H](C)C(=O)N1CCC[C@H]1C(=O)N1CCC[C@H]1C(=O)N1CCC[C@H]1C(=O)N[C@@H](CO)C(N)=O [Example 54, YAibQGT FTSDY SIα- MeL^1KD K^1KAQAib AFIEY LLKGG PSSGA PPPS-NH2 (SEQ ID NO: 38)]

pEC50 (GLP-1R; [3]): 11.05
Compound: CC[C@H](C)[C@H](NC(=O)[C@H](Cc1ccccc1)NC(=O)[C@@H]1CCCCNC(=O)CN(C(=O)[C@@H](N)CCCCNC(=O)[C@@H](N)CCCCNC(=O)CC[C@H](NC(=O)CCCCCCCCCCCCCCCCCCC(=O)O)C(=O)O)CC(=O)NCCCC[C@H](NC(=O)[C@H](CCCCN)NC(=O)[C@H](CC(=O)O)NC(=O)[C@H](CC(C)C)NC(=O)[C@](C)(CC(C)C)NC(=O)[C@@H](NC(=O)[C@H](CO)NC(=O)[C@H](Cc2ccc(O)cc2)NC(=O)[C@H](CC(=O)O)NC(=O)[C@H](CO)NC(=O)[C@@H](NC(=O)[C@H](Cc2ccccc2)NC(=O)[C@@H](NC(=O)CNC(=O)[C@H](CCC(N)=O)NC(=O)C(C)(C)NC(=O)[C@@H](N)Cc2ccc(O)cc2)[C@@H](C)O)[C@@H](C)O)[C@@H](C)CC)C(=O)N[C@@H](C)C(=O)N[C@@H](CCC(N)=O)C(=O)NC(C)(C)C(=O)N1)C(=O)N[C@@H](CCC(=O)O)C(=O)N[C@@H](Cc1ccccc1)C(=O)N[C@@H](CC(C)C)C(=O)N[C@@H](CC(C)C)C(=O)N[C@@H](CCC(=O)O)C(=O)NCC(=O)NCC(=O)N1CCC[C@H]1C(=O)N[C@@H](CO)C(=O)N[C@@H](CO)C(=O)NCC(=O)N[C@@H](C)C(=O)N1CCC[C@H]1C(=O)N1CCC[C@H]1C(=O)N1CCC[C@H]1C(=O)N[C@@H](CO)C(N)=O [Example 22, YAibQGT FTSDY SIα- MeLLD K^1KAQAib ^1KFIEF LLEGG PSSGA PPPS-NH2 (SEQ ID NO: 25)]
